Data from ChEMBL document CHEMBL1201862, “PubChem BioAssay data set” (2004).
Structures can show the parent of a compound that is named as a salt.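 Interpolation was linear, between the two tested concentrations surrounding the appropriate level; five concentrations were tested over 48 hours in 96-well plates. Abbreviation: GI50, concentration required for 50% inhibition of growth.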 The source made the active and inactive calls. Cut-off read from the data, not from the text of the source: active = GI50 up to about 1.1 µM and inactive = higher.

Experiments:
Assay in all cases: NCI-60 cell line screen, 48 h
[1] = test system: NCI-H460
[2] = test system: UACC-257
[3] = test system: 786-0
[4] = test system: MDA-N
[5] = test system: MDA-MB-231
[6] = test system: MCF7
[7] = test system: NCI-H226
[8] = test system: SR
[9] = test system: SF-539
[10] = test system: UO-31
[11] = test system: IGROV-1
[12] = test system: T47D
[13] = test system: MOLT-4
[14] = test system: KM12
[15] = test system: RXF 393
[16] = test system: SN12C
[17] = test system: OVCAR-8
[18] = test system: EKVX
[19] = test system: HL-60

Measured: GI50

O=[N+]([O-])c1ccc(N2N=C(c3ccc4ccccc4c3O)CC2c2ccc(Cl)cc2)c([N+](=O)[O-])c1 (stereo unspecified)
inactive: [1] 25.4 µM | [2] 32.1 µM | [3] 44 µM | [4] 16.7 µM | [5] 20.5 µM | [6] 20.3 µM | [7] 50.8 µM | [8] 18.2 µM | [9] 32.3 µM | [10] > 100 µM | [11] 21.5 µM | [12] 51.4 µM | [13] 17 µM | [14] 21.8 µM | [15] 28.6 µM | [16] 33.2 µM | [17] 37.3 µM

O=C(NNC(=O)c1ccccc1Cl)c1ccccc1O
inactive: [1] 23.6 µM | [2] > 100 µM | [3] 87.1 µM | [4] > 100 µM | [5] > 100 µM | [18] 16.3 µM | [6] 41.4 µM | [7] 3.42 µM | [8] 29.9 µM | [9] > 100 µM | [10] 27.7 µM | [11] 3.84 µM | [12] > 100 µM | [13] 57.1 µM | [14] 20.1 µM | [15] > 100 µM | [16] > 100 µM | [17] 19.8 µM

COc1cc2oc(-c3ccc4c(c3)OCO4)c(OC)c(=O)c2c(OC)c1OC
inactive: [1] > 100 µM | [2] > 100 µM | [3] 94 µM | [4] > 100 µM | [5] > 100 µM | [18] 66.5 µM | [6] > 100 µM | [7] > 100 µM | [9] 45.2 µM | [10] > 100 µM | [11] 67.9 µM | [12] > 100 µM | [19] 83.2 µM | [13] > 100 µM | [14] > 100 µM | [15] 32.7 µM | [16] > 100 µM | [17] 53.3 µM

S=C(NCc1ccccc1)c1nc[nH]c1C(=S)NCc1ccccc1
inactive: [1] 4.06 µM | [2] 10.1 µM | [3] 5.96 µM | [4] 7.74 µM | [5] 10 µM | [18] 4.34 µM | [6] 2.55 µM | [7] 1.78 µM | [9] 10.4 µM | [11] 5.08 µM | [12] 4.35 µM | [19] 7.69 µM | [13] 4.85 µM | [14] 6.07 µM | [15] 11.1 µM | [16] 11.7 µM | [17] 4.49 µM

Cc1nnc2sc(Cl)nn12
inactive: [1] 18.5 µM | [2] > 10 µM | [3] 26.5 µM | [4] 20.2 µM | [5] 22.1 µM | [18] 24.9 µM | [6] 13.3 µM | [7] 28.6 µM | [9] 20.9 µM | [10] 29.6 µM | [11] 16.4 µM | [12] 22.9 µM | [13] 5.65 µM | [14] 14.5 µM | [15] > 10 µM | [16] 32.4 µM | [17] 32.9 µM

COc1cc2c3c([nH]c2c(OC)c1OC)CCN(Cc1ccccc1)C3
inactive: [1] 14.9 µM | [2] 19.9 µM | [3] 22.3 µM | [4] 16.9 µM | [5] 32.8 µM | [18] > 100 µM | [6] 18.1 µM | [7] 20.9 µM | [9] 17.7 µM | [11] 57.7 µM | [12] 24.8 µM | [19] 21.4 µM | [13] 25.1 µM | [14] > 100 µM | [15] > 100 µM | [16] 45.6 µM | [17] > 100 µM

O=c1[nH]nc(Cc2c[nH]c3ccccc23)o1
inactive: [2] > 100 µM | [3] > 100 µM | [4] > 100 µM | [5] > 100 µM | [18] > 100 µM | [6] > 100 µM | [7] > 100 µM | [9] > 100 µM | [10] > 100 µM | [11] > 100 µM | [12] > 100 µM | [19] > 100 µM | [13] > 100 µM | [14] > 100 µM | [15] > 100 µM | [16] > 100 µM | [17] > 100 µM

O=C1NC(=S)NC(=O)C1C(c1ccc(Cl)cc1)C1C(=O)NC(=S)NC1=O.c1ccncc1
inactive: [1] > 100 µM | [2] > 100 µM | [3] > 100 µM | [4] > 100 µM | [5] > 100 µM | [18] 86.1 µM | [6] > 100 µM | [7] > 100 µM | [10] > 100 µM | [11] > 100 µM | [12] > 100 µM | [19] > 100 µM | [13] > 100 µM | [14] > 100 µM | [15] > 100 µM | [16] > 100 µM | [17] > 100 µM

[N-]=[N+]=Nc1c(Cc2ccccc2)c(Cl)nc2ccccc12
inactive: [1] 35.4 µM | [2] 33.5 µM | [3] 35.6 µM | [4] 21.9 µM | [5] 18.7 µM | [18] 27.2 µM | [6] 21.3 µM | [7] 16 µM | [9] 21.7 µM | [10] 28.6 µM | [11] 26.6 µM | [12] 32.6 µM | [19] 23.8 µM | [13] 28.8 µM | [14] 16.3 µM | [15] 15.7 µM | [16] 23.6 µM | [17] 20.8 µM

COc1ccc2c(c1)C1Oc3ccccc3CC1CO2 (stereo unspecified)
inactive: [1] 96.8 µM | [2] 35.9 µM | [3] 47.4 µM | [4] 37.6 µM | [5] 16.8 µM | [18] 47.2 µM | [6] 78.2 µM | [7] > 100 µM | [9] > 100 µM | [10] 22.3 µM | [11] > 100 µM | [12] 26.2 µM | [19] 21.2 µM | [13] 21.5 µM | [14] 37.2 µM | [15] 24.9 µM | [16] 35.4 µM | [17] 83.9 µM

CC(C)(C)OC(=O)NCCCCC(NC(=O)c1ccccc1)C(N)=O (stereo unspecified)
inactive: [1] > 100 µM | [2] > 100 µM | [3] > 100 µM | [4] > 100 µM | [5] > 100 µM | [18] > 100 µM | [6] > 100 µM | [7] > 10 µM | [9] > 100 µM | [10] > 100 µM | [12] > 100 µM | [13] 46.6 µM | [14] > 100 µM | [15] > 100 µM | [16] > 100 µM | [17] > 100 µM

CC1(C)[C@H]2CC[C@]1(C)[C@H](OC(=O)NNC(=O)O[C@@H]1C[C@@H]3CC[C@@]1(C)C3(C)C)C2
inactive: [1] 13.7 µM | [2] 16.3 µM | [3] 17.8 µM | [4] 11.6 µM | [5] 13 µM | [18] 12.6 µM | [6] 10.9 µM | [7] 16.7 µM | [9] 14.4 µM | [10] 15 µM | [11] 15.4 µM | [12] 7.1 µM | [19] 7.01 µM | [13] 7.29 µM | [14] 15.7 µM | [15] 10.6 µM | [16] 12.2 µM

CN1CCCOC(c2ccc(Cl)cc2)O1 (stereo unspecified)
inactive: [1] > 100 µM | [2] > 100 µM | [3] > 100 µM | [4] > 100 µM | [5] > 100 µM | [18] > 100 µM | [6] > 100 µM | [7] > 100 µM | [8] > 100 µM | [9] > 100 µM | [10] > 100 µM | [11] > 100 µM | [12] > 100 µM | [13] > 100 µM | [14] > 100 µM | [15] > 100 µM | [16] > 100 µM | [17] > 100 µM

NC(Cc1ccccc1)(C(=O)O)C(=O)O
inactive: [1] > 100 µM | [2] > 100 µM | [3] > 100 µM | [4] > 100 µM | [5] > 100 µM | [18] > 100 µM | [6] > 100 µM | [7] > 100 µM | [9] > 100 µM | [10] > 100 µM | [11] > 100 µM | [12] > 100 µM | [13] > 100 µM | [14] > 100 µM | [15] > 100 µM | [16] > 100 µM | [17] > 100 µM

COc1cc2cc3c4cc(OC)c(OC)cc4cc[n+]3c(C)c2cc1OC [CORALYNE]
inactive: [1] 38.9 µM | [2] 35.4 µM | [3] 15.6 µM | [4] > 100 µM | [5] > 100 µM | [18] 60.7 µM | [6] > 100 µM | [7] 30.4 µM | [9] 41.7 µM | [10] > 100 µM | [11] 37.3 µM | [12] > 100 µM | [19] > 100 µM | [13] > 100 µM | [14] 88.7 µM | [16] 5.74 µM | [17] > 100 µM

CN[C@@H](C)[C@@H](O)c1ccccc1 [PSEUDOEPHEDRINE HYDROCHLORIDE]
inactive: [1] > 100 µM | [2] > 100 µM | [3] > 100 µM | [4] > 100 µM | [5] > 10 µM | [18] > 100 µM | [6] > 100 µM | [7] > 100 µM | [9] > 100 µM | [10] > 100 µM | [11] > 100 µM | [12] > 100 µM | [19] > 100 µM | [13] > 100 µM | [14] > 100 µM | [16] > 100 µM | [17] > 100 µM
